Measurements taken from patent USRE48461E1, “Modulation of androgen receptor expression” (Ionis Pharmaceuticals, Inc., priority 2012, dated 2021).

Legend:
AR mRNA = AR mRNA expression in MDA-MB-453 breast cancer orthotopic model; assay type: in vivo, human; conditions: Study 1; TB-interface, normalized to actin; 50 mg/kg s.c. five times a week for 4 weeks
MDA-MB-453 tumor = assay: Tumor volume in MDA-MB-453 breast cancer orthotopic model; assay type: in vivo, NSG mice; conditions: 50 mg/kg s.c. five times a week for 4 weeks; for Tumor volume: Study 1, MDA-MB-453 orthotopic, NSG mice
[1] = cynomolgus monkey, in vivo, sc, 40 mg/kg
[2] = cynomolgus monkey, in vivo, sc, 40 mg/kg; remark: listed apart in the source
[3] = cynomolgus monkey, in vivo, sc, 40 mg/kg; remark: listed apart in the source
[4] = cynomolgus monkey, in vivo, sc, 40 mg/kg; remark: listed apart in the source
[5] = cynomolgus monkey, in vivo, sc, 40 mg/kg; remark: listed apart in the source
Protocol: The monkeys were 2-4 years old and weighed between 2 and 4 kg. Thirteen groups of four randomly assigned male cynomolgus monkeys each were injected subcutaneously with ISIS oligonucleotide or PBS. PBS solution or ISIS oligonucleotides, at a dose of 40 mg/kg, were administered with a loading regimen consisting of four doses on the first week of the study (days 1, 3, 5, and 7), followed by a maintenance regimen consisting of once weekly administration starting on Day 14 (weeks 2 to 6). Subcutaneous injections were performed in clock-wise rotations at 4 sites on the back; one site per dose. The injection sites were delineated by tattoo, while sedated using ketamine, and were separated by a minimum of 3 cm.
To evaluate any inflammatory effect of ISIS oligonucleotides in cynomolgus monkeys, the monkeys were fasted overnight. Approximately, 1.5 mL of blood samples were collected from all the study groups on day 44. Blood was collected in tubes without anticoagulant for serum separation. The tubes were kept at room temperature for a minimum of 90 min and then centrifuged at 3,000 rpm for 10 min. C-reactive protein (CRP), which is synthesized in the liver and which serves as a marker of inflammation, was measured on day 43 using a Toshiba 120FR NEO chemistry analyzer (Toshiba Co., Japan). Complement C3 was also measured similarly, and the data is presented as a percentage of baseline values.

Sequence: TGATTTAATGGTTGCA [ISIS 569216] (cEt/MOE gapmer chemistry, further chemistry not given here)
- AR mRNA expression inhibited compared to the control group (AR mRNA): 48%
- Tumor volume (MDA-MB-453 tumor; Day 16): 134
- Tumor volume (MDA-MB-453 tumor; Day 23): 142
- Tumor volume (MDA-MB-453 tumor; Day 30): 173
- Tumor volume (MDA-MB-453 tumor; Day 37): 125
- Tumor volume (MDA-MB-453 tumor; Day 44): 92
- Tumor volume (MDA-MB-453 tumor; Day 51): 73
- Tumor volumes (MDA-MB-453 tumor; Study 1, MDA-MB-453 model): tumor volumes were significantly decreased
- Body Wt [1]: 2.6 kg
- Heart weight [1]: 9.3 g
- Kidney weight [1]: 15 g
- Liver weight [1]: 71 g
- Mesenteric lymph nodes weight [1]: 2.7 g
- Spleen weight [1]: 4.9 g
- ALT [2]: 75 IU/L
- AST [2]: 93 IU/L
- Albumin [2]: 3.7 g/dL
- HCT [3]: 43%
- Hemoglobin [3]: 12.8 g/dL
- Platelets [3]: 504000 µL
- RBC [3]: 5.6e+06 µL
- WBC [3]: 12200 µL
- Plasma BUN [4]: 28.4 mg/dL
- Plasma Creatinine [4]: 0.81 mg/dL
- C3 (% of baseline) [5]: 94 % of baseline
- CRP [5]: 3.6 mg/dL
